Assay [1] relates to ISC-enriched organoids. The assay is described as follows: Primary screen, 384-well 2.5-D organoid differentiation (ENR+CD, 6 days): basal lysozyme secretion (LYZ.NS). As to conditions: for Dose.FC.LYZ.NS: primary screen, FC vs plate median; for Z.LYZ.NS: standard z score of FC. The format is cell-based, murine. An excerpt:
(§1) High-throughput screening.

Assay [2] concerns ISC-enriched organoids. The assay is described as follows: Primary screen, 384-well 2.5-D organoid differentiation (ENR+CD, 6 days): carbachol-induced lysozyme secretion (LYZ.S). The format is cell-based, murine. As to conditions: primary screen, FC vs plate median.
Text: as §1

Assay [3] has as its system ISC-enriched organoids. The assay is described as follows: Primary screen, 384-well 2.5-D organoid differentiation (ENR+CD, 6 days, Target Selective Inhibitor Library, vs whole-plate median): ATP (CellTiter-Glo 3D, CTG). The conditions noted are these: for Dose.FC.CTG: primary screen, FC vs plate median; for Z.CTG: standard z score of FC.

For the compound `C/C(=N\NC(=S)N1CCC1)c1ccccn1` [NSC 319726], the Dose.FC.LYZ.NS in assay [1] (Dose 0.08 uM) was 0.113 log 2 fold change; in assay [1] (Dose 0.40 uM) it was −0.090 log 2 fold change; in assay [1] (Dose 2.00 uM), −0.152 log 2 fold change; in assay [1] (Dose 10.00 uM), −0.229 log 2 fold change. The Z.LYZ.NS in assay [1] (Dose 0.08 uM) was 0.982; in assay [1] (Dose 0.40 uM) it was −0.780; in assay [1] (Dose 2.00 uM), −1.323; in assay [1] (Dose 10.00 uM) it was −1.992. Moreover, the Dose.FC.LYZ.S in assay [2] (Dose 0.08 uM) is given as 0.060 log 2 fold change; in assay [2] (Dose 0.40 uM), −0.035 log 2 fold change; in assay [2] (Dose 2.00 uM), −0.248 log 2 fold change; in assay [2] (Dose 10.00 uM), −0.327 log 2 fold change. In addition, the Dose.FC.CTG in assay [3] (Dose 0.08 uM) was 0.132 log 2 fold change; in assay [3] (Dose 0.40 uM), −0.185 log 2 fold change; in assay [3] (Dose 2.00 uM), −0.447 log 2 fold change; in assay [3] (Dose 10.00 uM), −1.907 log 2 fold change. For the same compound, the Z.CTG is on record as 0.316 in assay [3] (Dose 0.08 uM), −0.441 in assay [3] (Dose 0.40 uM), −1.068 in assay [3] (Dose 2.00 uM) and −4.555 in assay [3] (Dose 10.00 uM).

With `CCCC(C)NC(=O)c1ccc(Cl)c(Cl)c1` (stereo not drawn) [NSC 405020], the Dose.FC.LYZ.NS is given as 0.008 log 2 fold change in assay [1] (Dose 0.08 uM), −0.028 log 2 fold change in assay [1] (Dose 0.40 uM), 0.018 log 2 fold change in assay [1] (Dose 2.00 uM) and −0.065 log 2 fold change in assay [1] (Dose 10.00 uM). Further, the Z.LYZ.NS in assay [1] (Dose 0.08 uM) is listed as 0.071; in assay [1] (Dose 0.40 uM), −0.246; in assay [1] (Dose 2.00 uM) it was 0.160; in assay [1] (Dose 10.00 uM), −0.570. Also, the Dose.FC.LYZ.S in assay [2] (Dose 0.08 uM) was 0.014 log 2 fold change; in assay [2] (Dose 0.40 uM), 0.093 log 2 fold change; in assay [2] (Dose 2.00 uM) it was 0.002 log 2 fold change; in assay [2] (Dose 10.00 uM), −0.061 log 2 fold change. For the same compound, the Dose.FC.CTG was −0.059 log 2 fold change in assay [3] (Dose 0.08 uM), −0.071 log 2 fold change in assay [3] (Dose 0.40 uM), −0.059 log 2 fold change in assay [3] (Dose 2.00 uM) and −0.058 log 2 fold change in assay [3] (Dose 10.00 uM). Further, the Z.CTG in assay [3] (Dose 0.08 uM) is given as −0.140; in assay [3] (Dose 0.40 uM), −0.170; in assay [3] (Dose 2.00 uM), −0.141; in assay [3] (Dose 10.00 uM), −0.138.

On to `O=c1cc(N2CCOCC2)oc2c1ccc1ccccc12` [NU7026], for which the Dose.FC.LYZ.NS in assay [1] (Dose 0.08 uM) is given as 0.023 log 2 fold change; in assay [1] (Dose 0.40 uM), 0.023 log 2 fold change; in assay [1] (Dose 2.00 uM), −0.058 log 2 fold change; in assay [1] (Dose 10.00 uM), −0.158 log 2 fold change. For the same compound, the Z.LYZ.NS in assay [1] (Dose 0.08 uM) was 0.198; in assay [1] (Dose 0.40 uM), 0.198; in assay [1] (Dose 2.00 uM), −0.507; in assay [1] (Dose 10.00 uM), −1.380. Besides, the Dose.FC.LYZ.S in assay [2] (Dose 0.08 uM) is reported as 0.021 log 2 fold change; in assay [2] (Dose 0.40 uM) it was 0.034 log 2 fold change; in assay [2] (Dose 2.00 uM), −0.056 log 2 fold change; in assay [2] (Dose 10.00 uM) it was −0.198 log 2 fold change. Also, the Dose.FC.CTG in assay [3] (Dose 0.08 uM) is listed as 0.096 log 2 fold change; in assay [3] (Dose 0.40 uM) it was 0.104 log 2 fold change; in assay [3] (Dose 2.00 uM) it was 0.107 log 2 fold change; in assay [3] (Dose 10.00 uM) it was −0.119 log 2 fold change. The Z.CTG in assay [3] (Dose 0.08 uM) is listed as 0.230; in assay [3] (Dose 0.40 uM), 0.248; in assay [3] (Dose 2.00 uM), 0.255; in assay [3] (Dose 10.00 uM) it was −0.284.

As to `Nc1ncnc2c1c(-c1cccc(OCc3ccccc3)c1)cn2C1CC(CN2CCCC2)C1` (stereo not drawn) [NVP-ADW742], the Dose.FC.LYZ.NS in assay [1] (Dose 0.08 uM) is on record as 0.142 log 2 fold change; in assay [1] (Dose 0.40 uM), 0.172 log 2 fold change; in assay [1] (Dose 2.00 uM), −0.095 log 2 fold change; in assay [1] (Dose 10.00 uM) it was −0.135 log 2 fold change. In addition, the Z.LYZ.NS in assay [1] (Dose 0.08 uM) is 1.239; in assay [1] (Dose 0.40 uM), 1.499; in assay [1] (Dose 2.00 uM) it was −0.823; in assay [1] (Dose 10.00 uM) it was −1.172. Besides, the Dose.FC.LYZ.S was 0.245 log 2 fold change in assay [2] (Dose 0.08 uM), 0.265 log 2 fold change in assay [2] (Dose 0.40 uM), −0.166 log 2 fold change in assay [2] (Dose 2.00 uM) and −0.210 log 2 fold change in assay [2] (Dose 10.00 uM). Moreover, the Dose.FC.CTG in assay [3] (Dose 0.08 uM) was 0.679 log 2 fold change; in assay [3] (Dose 0.40 uM), 0.663 log 2 fold change; in assay [3] (Dose 2.00 uM) it was 0.257 log 2 fold change; in assay [3] (Dose 10.00 uM) it was −0.465 log 2 fold change. Further, the Z.CTG in assay [3] (Dose 0.08 uM) was 1.622; in assay [3] (Dose 0.40 uM) it was 1.583; in assay [3] (Dose 2.00 uM) it was 0.614; in assay [3] (Dose 10.00 uM) it was −1.112.

As for `CN1C(=O)C(Cc2c[nH]c3ccccc23)NC1=S` (stereo not drawn) [Necrostatin-1], the Dose.FC.LYZ.NS is 0.060 log 2 fold change in assay [1] (Dose 0.08 uM), 0.020 log 2 fold change in assay [1] (Dose 0.40 uM), 0.154 log 2 fold change in assay [1] (Dose 2.00 uM) and 0.057 log 2 fold change in assay [1] (Dose 10.00 uM). Moreover, the Z.LYZ.NS is recorded as 0.524 in assay [1] (Dose 0.08 uM), 0.174 in assay [1] (Dose 0.40 uM), 1.338 in assay [1] (Dose 2.00 uM) and 0.496 in assay [1] (Dose 10.00 uM). In addition, the Dose.FC.LYZ.S in assay [2] (Dose 0.08 uM) is on record as 0.077 log 2 fold change; in assay [2] (Dose 0.40 uM) it was 0.038 log 2 fold change; in assay [2] (Dose 2.00 uM), 0.092 log 2 fold change; in assay [2] (Dose 10.00 uM) it was 0.229 log 2 fold change. Also, the Dose.FC.CTG in assay [3] (Dose 0.08 uM) was 0.102 log 2 fold change; in assay [3] (Dose 0.40 uM), 0.168 log 2 fold change; in assay [3] (Dose 2.00 uM) it was 0.011 log 2 fold change; in assay [3] (Dose 10.00 uM) it was 0.137 log 2 fold change. Besides, the Z.CTG in assay [3] (Dose 0.08 uM) was 0.244; in assay [3] (Dose 0.40 uM), 0.401; in assay [3] (Dose 2.00 uM), 0.027; in assay [3] (Dose 10.00 uM), 0.328.

With `C#Cc1cccc(Nc2ncnc3cc(OCCOC)c(OCCO)cc23)c1` [OSI-420], the Dose.FC.LYZ.NS is 0.115 log 2 fold change in assay [1] (Dose 0.08 uM), −0.224 log 2 fold change in assay [1] (Dose 0.40 uM), −0.287 log 2 fold change in assay [1] (Dose 2.00 uM) and −0.325 log 2 fold change in assay [1] (Dose 10.00 uM). Moreover, the Z.LYZ.NS in assay [1] (Dose 0.08 uM) is on record as 1.002; in assay [1] (Dose 0.40 uM), −1.948; in assay [1] (Dose 2.00 uM), −2.498; in assay [1] (Dose 10.00 uM), −2.833. Moreover, the Dose.FC.LYZ.S is on record as 0.059 log 2 fold change in assay [2] (Dose 0.08 uM), −0.221 log 2 fold change in assay [2] (Dose 0.40 uM), −0.381 log 2 fold change in assay [2] (Dose 2.00 uM) and −0.374 log 2 fold change in assay [2] (Dose 10.00 uM). Moreover, the Dose.FC.CTG in assay [3] (Dose 0.08 uM) is listed as 0.106 log 2 fold change; in assay [3] (Dose 0.40 uM), −0.130 log 2 fold change; in assay [3] (Dose 2.00 uM), −1.263 log 2 fold change; in assay [3] (Dose 10.00 uM) it was −1.100 log 2 fold change. The Z.CTG in assay [3] (Dose 0.08 uM) is on record as 0.254; in assay [3] (Dose 0.40 uM) it was −0.311; in assay [3] (Dose 2.00 uM), −3.016; in assay [3] (Dose 10.00 uM), −2.627.

These data come from US20230398130A1, “METHODS AND COMPOSITIONS FOR DIFFERENTIATING STEM CELLS” (Massachusetts Institute of Technology, priority 2020, published 2023).
